≈ marks a conversion by molar mass, not a printed value. Each block holds one compound with its values, some of them ahead of it.
How the values were obtained:
blood pressure = experiment: Effects on Blood Pressure and Heart Rate in the Anesthetized Cat (Test D); assay type: in vivo; details: Felis catus, iv, i.v. 0.01 to 10.0 mcg/kg, scored on hypotension, read-out: Activity value, Test D: Normal Feline Blood Pressure and Heart Rate (ED50 mmHg)
Description: D. Evaluation of the Effects of Prostaglandin Analogs III on Blood Pressure and Heart Rate in the Anesthetized Cat
The acute effects of test compounds on blood pressure and heart rate were determined in cats of either sex anesthetized with a mixture of pentobarbital sodium (35 mg/kg, i.v.) and barbital sodium (100 mg/kg, i.v.). Cannulas were placed in the trachea to allow adequate spontaneous ventilation, in a femoral artery for blood pressure recording with a strain gage transducer, and in a saphenous vein for drug administration. Heart rate was recorded by means of a cardiotachometer driven by the R wave of the electrocardiogram. After a period of 10 min of stable recordings of blood pressure and heart rate, the test compound was administered intravenously at doses increasing from 0.01 to 10.0 mcg/kg, spaced one log and injected at 10 min intervals. All doses were injected in a volume of 0.1 ml/kg. Modifications of blood pressure and heart rate induced by the test compound were expressed both in absolute units (mmHg and beats/min) and as percent of values recorded immediately before administration of each dose. Biphasic responses were tabulated in the order in which they occur. The direction of the observed changes was also noted (+ for increase and - for decrease).
Activity of compounds in this test was judged only on the basis of the degree of hypotension observed. Thus, the ED50 mmHg (dose decreasing blood pressure by 50 mmHg) was calculated graphically and the compound scored according to the following scale: […]

rat uterus = experiment: Effects on the Rat Uterus (Test F); details: rat uterus segments, 0.001 to 10.0 mcg/ml, 29° C.; read-out: Activity value, Test F: Effects on Rat Uterus (ED50, response of 50% that of carbachol)
Description: F. Evaluation of the Effects of Prostaglandin Analogs III on the Rat Uterus
The uterine stimulant effect of test compounds is determined in segments of uterus obtained from rats (140-160 g) pretreated subcutaneously with 1 mg/kg of diethylstibesterol 18 hr before the experiment. The tissues are placed in 10 ml chambers filled with de-Jalon solution at 29° C. and bubbled with 95% O2 and 5% CO2, and prepared for isometric recording with force displacement transducers. Preparations are stretched to an initial tension of 1 g and are left undisturbed for 30 min, after which two responses to 1 mcg/ml of carbachol added to the bath at a 10 min interval, are obtained (the value of the second response is recorded). Responses to increasing concentrations of the test compound (0.001 to 10.0 mcg/ml with one log intervals) are then recorded every 10 min. Preparations are washed four times after each response. All doses of drugs are administered in a 0.1 ml volume. Since it has been observed that the magnitude of the second response to carbachol, which is approximately 10% greater than the first, is close to the maximal response of the tissue, such value is taken as a measure of the sensititity of the particular segment. Responses to each concentration of the test compound are expressed in terms of percentage of the second response to carbachol and the ED50 (dose producing a response of 50% that of carbachol) is calculated graphically. Activity is scored according to the following scale: […]

femoral blood flow = experiment: Effects on Femoral Blood Flow in the Dog (Test C); assay type: in vivo, dog (mongrel); details: anesthetized dog, intraarterial 0.001 to 10 mcg
Description: C. Evaluation of the Effects of Prostaglandin Analogs III on the Femoral Blood Flow in the Dog
The peripheral vasodilator or constrictor effects of test compounds were determined in mongrel dogs of either sex, weighing between 10 and 20 kg anesthestized intravenously with 35 mg/kg of sodium pentobarbital. An external iliac artery was dissected immediately above the femoral arch for a length of approximately 5 cm and a previously calibrated, non-connulating electromagnetic flowmeter sensor with a lumen between 2.5 and 3.5 mm was placed snugly around the vessel. Cannulas were placed in a branch of the artery arising distally to the location of the flowmeter sensor for intraarterial drug administrations, in the contralateral femoral artery for systemic blood pressure recordings and in the trachea for artificial respiration with room air. Femoral blood flow and systemic blood pressure were continuously recorded with an electromagnetic flowmeter and pressure transducer, respectively.
After an adequate control period, test compounds were injected intraarterially at one log-spaced doses ranging from 0.001 to 10 mcg., in a volume of 0.5 ml and at 5 to 10 min intervals. Maximum changes in bloodflow, as well as any variations in blood pressure, were tabulated for each dose in absolute values (ml/min and mmHg). The calculations were made taking as control values those existing immediately before administration of each dose. The direction of the observed change (+ for increase and - for decrease) was also noted. The dose changing bloodflow by 100 ml/min (ED100 ml/min) was calculated graphically and was used for scoring activity as follows: […]

[1] = test system: blood pressure (hypertensive rat); experiment: Effects on Blood Pressure in the Hypertensive Rat (Test E); assay type: in vivo; set-up: key: 0: Not significant at any time interval; 1: Significant at one time interval; 2: Significant at two time intervals; 3: Significant at three time intervals; 4: Significant at all four intervals; details: 1 mg/kg intraperitoneal, 2, 4, 6 and 8 hr
Description: E. Evaluation of the Effects of Prostaglandin Analogs III on Blood Pressure in the Hypertensive Rat
The acute antihypertensive activity of test compounds is determined in rats made hypertensive by the procedure of Grollman (A. Proc. Soc. Exper. Biol. Med., 57:102, [1944]). Female rats weighing between 60 and 100 g are anesthetized with ether, the right kidney approached through a flank retroperitoneal incision, decapsulated and tied with a figure-of-eight ligature. The animals are left to recover and two weeks later are again anesthetized and the contralateral kidney removed. Four weeks after the second operation the rats are subjected to indirect blood pressure measurements and those showing systolic pressure values greater than 160 mmHg are selected for drug testing.
Blood pressure is measured in the tail with an inflatable occluding cuff placed at the base of the extremity and a pulse detector located distally. The cuff is inflated to approximately 300 mmHg and is slowly deflated until pulsations appear, indicating the level of systolic pressure; diastolic pressure is not recorded by this procedure. All measurements are carried out in unanesthetized, unsedated animals maintained in a warm environment during the recording procedure and for at least 6 hr before. In all cases, three pressure readings are obtained in succession and mean values are calculated thereof.
Experiments are carried out in groups of five hypertensive rats in which systolic pressure is determined immediately before and 2, 4, 6 and 8 hr after the intraperitoneal administration of the test compound at a dose of 1 mg/kg. Drugs are diluted from stock solutions with phosphate buffer (Lee et al., Prostaglandins 3:29 [1973]), so as to inject this quantity in a volume of 1 ml/kg. Changes from control blood pressure values are calculated for each interval both in mmHg and in per-cent, and evaluated for significance by means of Wilcoxon's signed rank test (Wilcoxon and Wilcox, Some rapid approximate statistical procedures, Lederle Laboratories, Pearl River [1964]).

EC50 (rat uterus): > 10 µg/mL
Compound: CCC1CC(C)([C@@H](O)/C=C/[C@H]2[C@H](O)CC(=O)[C@@H]2CCCCCCC(=O)OC)C1 (stereo partly drawn) [TR-4682, Methyl 11α,15S-dihydroxy-16,18-methano-16-methyl-9-oxoprost-13E-en-1-oate]
ED (50 mmHg) (blood pressure): 0.00101 to 0.01 mg/kg
Activity value, Test C: Increase in Canidae Femoral Blood Flow (ED100 ml/min) (femoral blood flow): 3 (0.01-0.1)
Activity value, Test E: Effects on Blood Pressure in Hypertensive Rat (blood pressure decrease) [1]: 0

EC50 (rat uterus): > 10 µg/mL
Compound: CCC1CC(C)([C@H](O)/C=C/[C@H]2[C@H](O)CC(=O)[C@@H]2CCCCCCCO)C1 (stereo partly drawn) [TR-4688, 16,18-Methano-16-methyl-1,11α,15R-trihydroxyprost-13E-en-9-onc]
ED (50 mmHg) (blood pressure): > 0.0101 mg/kg
Activity value, Test C: Increase in Canidae Femoral Blood Flow (ED100 ml/min) (femoral blood flow): 0 (>10.0)
Activity value, Test E: Effects on Blood Pressure in Hypertensive Rat (blood pressure decrease) [1]: 0

EC50 (rat uterus): > 10 µg/mL
Compound: COC(=O)CCCCCC[C@H]1C(=O)C[C@@H](O)[C@@H]1/C=C/[C@@H](O)C1(C)CCC1 [TR-4690, Methyl 16,19-cyclo-11α,15R-dihydroxy-16-methyl-20-nor-9-oxoprost-13E-en-1-oate]
ED (50 mmHg) (blood pressure): 0.00101 to 0.01 mg/kg
Activity value, Test C: Increase in Canidae Femoral Blood Flow (ED100 ml/min) (femoral blood flow): 2 (0.11-1.0)
Activity value, Test E: Effects on Blood Pressure in Hypertensive Rat (blood pressure decrease) [1]: 0

EC50 (rat uterus): > 10 µg/mL
Compound: COC(=O)CCCCCC[C@H]1C(=O)C[C@@H](O)[C@@H]1/C=C/[C@H](O)C1(C)CCC1 [TR-4691, Methyl 16,19-cyclo-11α,15S-dihydroxy-16-methyl-20-nor-9-oxoprost-13E-en-1-oate]
ED (50 mmHg) (blood pressure): > 0.0101 mg/kg
Activity value, Test C: Increase in Canidae Femoral Blood Flow (ED100 ml/min) (femoral blood flow): 2 (0.11-1.0)
Activity value, Test E: Effects on Blood Pressure in Hypertensive Rat (blood pressure decrease) [1]: 0

Continued, compound first:

Compound: CCC1CC([C@@H](O)/C=C/[C@H]2[C@H](O)CC(=O)[C@@H]2CCCCCCC(=O)OC)C1 (stereo partly drawn) [TR-4248, Methyl 11α,15R-dihydroxy-16,18-methano-9-oxoprost-13E-en-1-oate]
ED (50 mmHg) (blood pressure): 0.00011 to 0.001 mg/kg
EC50 (rat uterus): 0.101 to 1 µg/mL (≈ 0.265 to 2.63 µM)
Activity value, Test C: Increase in Canidae Femoral Blood Flow (ED100 ml/min) (femoral blood flow): 2 (0.11-1.0)
Activity value, Test E: Effects on Blood Pressure in Hypertensive Rat (blood pressure decrease) [1]: 1

Compound: CCC1CC([C@H](O)/C=C/[C@H]2[C@H](O)CC(=O)[C@@H]2CCCCCCC(=O)OC)C1 (stereo partly drawn) [TR-4249, Methyl 11α,15S-dihydroxy-16,18-methano-9-oxoprost-13E-en-1-oate]
ED (50 mmHg) (blood pressure): > 0.0101 mg/kg
EC50 (rat uterus): > 10 µg/mL
Activity value, Test C: Increase in Canidae Femoral Blood Flow (ED100 ml/min) (femoral blood flow): 0 (>10.0)
Activity value, Test E: Effects on Blood Pressure in Hypertensive Rat (blood pressure decrease) [1]: 0

Compound: CCC1CC([C@@H](O)/C=C/[C@H]2C=CC(=O)[C@@H]2CCCCCCCOC(C)=O)C1 (stereo partly drawn) [TR-4568, 1-Acetoxy-15R-hydroxy-16,18-methanoprosta-10,13E-dien-9-one]
ED (50 mmHg) (blood pressure): > 0.0101 mg/kg
EC50 (rat uterus): > 10 µg/mL
Activity value, Test C: Increase in Canidae Femoral Blood Flow (ED100 ml/min) (femoral blood flow): 0 (>10.0)
Activity value, Test E: Effects on Blood Pressure in Hypertensive Rat (blood pressure decrease) [1]: 0

Compound: CCC1CC([C@@H](O)/C=C/[C@H]2[C@H](O)CC(=O)[C@@H]2CCCCCCCO)C1 (stereo partly drawn) [TR-4569, 16,18-Methano-1,11α,15R-trihydroxyprost-13E-en-9-one]
ED (50 mmHg) (blood pressure): > 0.0101 mg/kg
EC50 (rat uterus): > 10 µg/mL
Activity value, Test C: Increase in Canidae Femoral Blood Flow (ED100 ml/min) (femoral blood flow): 0 (>10.0)
Activity value, Test E: Effects on Blood Pressure in Hypertensive Rat (blood pressure decrease) [1]: 0

Compound: CCC1CC([C@H](O)/C=C/[C@H]2[C@H](O)CC(=O)[C@@H]2CCCCCCCO)C1 (stereo partly drawn) [TR-4570, 16,18-Methano-1,11α,15S-trihydroxyprost-13E-en-9-one]
ED (50 mmHg) (blood pressure): > 0.0101 mg/kg
EC50 (rat uterus): 0.101 to 1 µg/mL (≈ 0.287 to 2.84 µM)
Activity value, Test C: Increase in Canidae Femoral Blood Flow (ED100 ml/min) (femoral blood flow): 0 (>10.0)
Activity value, Test E: Effects on Blood Pressure in Hypertensive Rat (blood pressure decrease) [1]: 0

Compound: CCCCC1([C@H](O)/C=C/[C@H]2[C@H](O)CC(=O)[C@@H]2CCCCCCCO)CCC1 [TR-4645, 16,16-Propano-1,11α,15R-trihydroxyprost-13E-en-9-one]
ED (50 mmHg) (blood pressure): > 0.0101 mg/kg
EC50 (rat uterus): > 10 µg/mL
Activity value, Test C: Increase in Canidae Femoral Blood Flow (ED100 ml/min) (femoral blood flow): 1 (1.0.-10.0)
Activity value, Test E: Effects on Blood Pressure in Hypertensive Rat (blood pressure decrease) [1]: 0

Compound: CCCCC1([C@@H](O)/C=C/[C@H]2[C@H](O)CC(=O)[C@@H]2CCCCCCCO)CCC1 [TR-4646, 16,16-Propano-1,11α,15S-trihydroxyprost-13E-en-9-one]
ED (50 mmHg) (blood pressure): > 0.0101 mg/kg
EC50 (rat uterus): > 10 µg/mL
Activity value, Test C: Increase in Canidae Femoral Blood Flow (ED100 ml/min) (femoral blood flow): 0 (>10.0)
Activity value, Test E: Effects on Blood Pressure in Hypertensive Rat (blood pressure decrease) [1]: 0

Compound: CC1([C@H](O)/C=C/[C@H]2[C@H](O)CC(=O)[C@@H]2CCCCCCCO)CCC1 [TR-4673, 16,19-Cyclo-16-methyl-20-nor-1,11α,15R-trihydroxyprost-13E-en-9-one]
ED (50 mmHg) (blood pressure): > 0.0101 mg/kg
EC50 (rat uterus): > 10 µg/mL
Activity value, Test C: Increase in Canidae Femoral Blood Flow (ED100 ml/min) (femoral blood flow): 0 (>10.0)
Activity value, Test E: Effects on Blood Pressure in Hypertensive Rat (blood pressure decrease) [1]: 1

Compound: CCCCC1([C@@H](O)/C=C/[C@H]2[C@H](O)CC(=O)[C@@H]2CCCCCCC(=O)OC)CCC1 [TR-4677, Methyl 11α,15S-dihydroxy-9-oxo-16-,16-propanoprost-13E-en-1-oate]
ED (50 mmHg) (blood pressure): > 0.0101 mg/kg
EC50 (rat uterus): 0.01 to 0.1 µg/mL (≈ 0.0245 to 0.245 µM)
Activity value, Test C: Increase in Canidae Femoral Blood Flow (ED100 ml/min) (femoral blood flow): 0 (>10.0)
Activity value, Test E: Effects on Blood Pressure in Hypertensive Rat (blood pressure decrease) [1]: 0

Reference: US4220795A, “Cyclobutyl substituted derivatives of prostaglandin analogs” (Miles Laboratories, Inc., priority 1978, dated 1980)
